Test results taken from ChEMBL document CHEMBL1201862, “PubChem BioAssay data set” (2004).
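Grown in 96-well plates, cells were treated for 48 hours with each compound at five concentrations. Insufficient inhibition: endpoint recorded as highest concentration tested. GI50 is the concentration that inhibits growth by half.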 Active and inactive are the calls of the source. Cut-off read from the data, not from the text of the source: active = GI50 up to about 1.1 µM and inactive = higher.

Assays:
Test in all cases: NCI anticancer screen, dose series, 48 h
DMS-273 = test system: DMS-273
HOP-18 = test system: HOP-18
KM-20L2 = test system: KM-20L2
RXF 631 = test system: RXF 631
SNB-78 = test system: SNB-78
XF498 = test system: XF498
DLD-1 = test system: DLD-1
LXFL 529 = test system: LXFL 529

Compound: O=C1Cc2ccccc2N1/N=C\c1ccc(O)cc1
- GI50 (DMS-273): > 100 µM (inactive)
- GI50 (HOP-18): > 100 µM (inactive)
- GI50 (KM-20L2): > 100 µM (inactive)
- GI50 (RXF 631): > 100 µM (inactive)
- GI50 (SNB-78): > 100 µM (inactive)
- GI50 (XF498): > 100 µM (inactive)

Compound: COc1c(Br)cc(Br)c(OC)c1-c1[nH]c(Br)c(Br)c1Br
- GI50 (DLD-1): 5.26 µM (inactive)
- GI50 (DMS-273): 6.9 µM (inactive)
- GI50 (HOP-18): 2.54 µM (inactive)
- GI50 (KM-20L2): 8.87 µM (inactive)
- GI50 (RXF 631): 6.64 µM (inactive)
- GI50 (SNB-78): 11.1 µM (inactive)
- GI50 (XF498): 2.27 µM (inactive)

Compound: NCCNC(=O)c1cccc2cc3ccccc3nc12
- GI50 (DLD-1): 2.77 µM (inactive)
- GI50 (DMS-273): 2.3 µM (inactive)
- GI50 (HOP-18): 14.7 µM (inactive)
- GI50 (KM-20L2): 1.61 µM (inactive)
- GI50 (LXFL 529): 4.95 µM (inactive)
- GI50 (RXF 631): 4.47 µM (inactive)
- GI50 (SNB-78): 8.63 µM (inactive)
- GI50 (XF498): 2.04 µM (inactive)

Compound: O=C(/C=C/c1ccccc1O)c1ccc([N+](=O)[O-])cc1
- GI50 (DLD-1): 12.9 µM (inactive)
- GI50 (DMS-273): 15.2 µM (inactive)
- GI50 (HOP-18): 30.1 µM (inactive)
- GI50 (KM-20L2): 18.8 µM (inactive)
- GI50 (LXFL 529): 13.4 µM (inactive)
- GI50 (RXF 631): 18.7 µM (inactive)
- GI50 (SNB-78): 20.9 µM (inactive)
- GI50 (XF498): 16.9 µM (inactive)

Compound: Nc1nc(Cl)cc(NCCCCCCCCCCNc2cc(Cl)nc(N)n2)n1
- GI50 (DLD-1): 6.5 µM (inactive)
- GI50 (DMS-273): 4.35 µM (inactive)
- GI50 (HOP-18): 58.3 µM (inactive)
- GI50 (KM-20L2): 5.21 µM (inactive)
- GI50 (LXFL 529): 1.27 µM (inactive)
- GI50 (RXF 631): 5.3 µM (inactive)
- GI50 (SNB-78): 0.0638 µM (active)
- GI50 (XF498): 1.25 µM (inactive)

Compound: N#Cc1cccnc1Cl
- GI50 (DLD-1): > 100 µM (inactive)
- GI50 (DMS-273): > 100 µM (inactive)
- GI50 (HOP-18): > 100 µM (inactive)
- GI50 (KM-20L2): > 100 µM (inactive)
- GI50 (LXFL 529): > 100 µM (inactive)
- GI50 (RXF 631): > 100 µM (inactive)
- GI50 (SNB-78): > 83.4 µM (inactive)
- GI50 (XF498): > 100 µM (inactive)

Compound: COC(=O)C(C)Oc1ccc(O)cc1 (configuration not stated)
- GI50 (DLD-1): > 100 µM (inactive)
- GI50 (DMS-273): > 100 µM (inactive)
- GI50 (HOP-18): > 100 µM (inactive)
- GI50 (KM-20L2): > 100 µM (inactive)
- GI50 (LXFL 529): > 100 µM (inactive)
- GI50 (RXF 631): > 100 µM (inactive)
- GI50 (SNB-78): > 100 µM (inactive)

Compound: COc1ccc(OC)c(N2CC(N)C2=O)c1 (configuration not stated)
- GI50 (DMS-273): > 100 µM (inactive)
- GI50 (HOP-18): > 100 µM (inactive)
- GI50 (KM-20L2): > 100 µM (inactive)
- GI50 (RXF 631): > 100 µM (inactive)
- GI50 (XF498): > 100 µM (inactive)
